Experimental data reported in ChEMBL document CHEMBL3612063, “Multistage virtual screening and identification of novel HIV-1 protease inhibitors by integrating SVM, shape, pharmacophore and docking methods” (Eur J Med Chem, 2015).
Activity calls are given as the source filed them. The rule behind the calls is not given here. Square brackets hold non-standard residues; d marks the D form. Peptide text beside a SMILES is read from it. * marks the point of attachment. Hyp = O=C(O)[C@@H]1C[C@@H](O)CN1; ONp = O=[N+]([O-])c1ccc(O*)cc1; Cbz = O=C(OCc1ccccc1)*; Boc = CC(C)(C)OC(=O)*; OBn = c1ccc(CO*)cc1

Experiments:
[1] = biological target: Protease (Human immunodeficiency virus 1) (UniProt Q9YQ12); assay: Inhibition of recombinant HIV1 protease at 1 mM using FRET substrate peptide by FRET assay
Protease = Protease (Human immunodeficiency virus 1, UniProt Q9YQ12); assay: Inhibition of recombinant HIV1 protease using FRET substrate peptide by FRET assay
[2] = biological target: Protease (Human immunodeficiency virus 1) (UniProt Q9YQ12); assay: Inhibition of recombinant HIV1 protease at 2 uM using FRET substrate peptide by FRET assay

Sequence of Protease (Human immunodeficiency virus 1) (Q9YQ12 as listed by the source): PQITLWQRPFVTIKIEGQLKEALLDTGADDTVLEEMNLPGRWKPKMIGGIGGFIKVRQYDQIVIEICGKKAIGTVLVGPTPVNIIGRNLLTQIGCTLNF
Sequence of Protease (Q9YQ12 whole entry): as the sequence (Q9YQ12 as listed by the source) above

inhibition [1] | IC50 (Protease) [µM] | SMILES | inhibition [2]
Active | 62 | COC(=O)[C@H](CC(C)C)NC(=O)[C@H](Cc1ccccc1)NC(=O)[C@H](CO)NC(=O)OCc1ccccc1 (Cbz-Ser-Phe-Leu-OMe) | 
inactive |  | O=C(CNC(=O)[C@@H]1CCCN1C(=O)[C@@H]1C[C@@H](O)CN1C(=O)OCc1ccccc1)Oc1ccc([N+](=O)[O-])cc1 (Cbz-[Hyp]-Pro-Gly-ONp) | 
inactive |  | C[C@@H](NC(=O)[C@H](Cc1ccccc1)NC(=O)[C@H](Cc1ccccc1)NC(=O)OC(C)(C)C)C(=O)OCc1ccccc1 | 
inactive |  | CC(C)[C@H](NC(=O)[C@H](Cc1ccccc1)NC(=O)OC(C)(C)C)C(=O)NCC(=O)OCc1ccccc1 (Boc-Phe-Val-Gly-OBn) | 

More lines, now with the values behind:

SMILES | inhibition [1] | IC50 (Protease) [µM] | inhibition [2]
COC(=O)[C@H](Cc1ccc(O)cc1)NC(=O)[C@H](CC(C)C)NC(=O)[C@H](CO)NC(=O)OCc1ccccc1 (Cbz-Ser-Leu-Tyr-OMe) | Active | 162 | 
CC(C)CC(=O)N[C@H](C(=O)N[C@H](C(=O)N[C@@H](CC(C)C)[C@@H](O)CC(=O)N[C@@H](C)C(=O)N[C@@H](CC(C)C)[C@@H](O)CC(=O)O)C(C)C)C(C)C |  |  | Active
CC(C)C[C@@H](NC(=O)[C@H](CSCc1ccccc1)NC(=O)OCc1ccccc1)C(=O)OCc1ccccc1 | inactive |  | 
